Values joined by “and” are separate entries in the source; they are usually repeats but may differ in a detail not shown here. Equal values may be shown once. “Also recorded” adds a separate entry of the source.
Experiments:
human leukemic cells = details: cited from earlier work
[1] = adverse drug reactions (ADR) investigated during phase II studies; assay type: in vivo, humans
Text: During phase II studies, in accordance with requirements the adverse drug reactions (ADR) were also investigated. The result is shown in Table 2: The grading of the symptoms as transferred to the case report forms took place in accordance with the internationally used WHO classification. The assessment “yes” means that a symptom is caused by the medicine.

healthy cells = details: healthy vs degenerate cells; cited from earlier work
brain tumors = assay: clinical phase II study with edelfosine: result of therapy and survival time; assay type: in vivo, humans; details: for Result of therapy (clin.): assessed on clinical symptoms (clin.)
Procedure: The patients which are listed below in Table 1, with their status before and after treatment, were treated with edelfosine in the phase II study. It is important to emphasize in this connection that virtually all the patients have previously been treated or were from the outset untreatable (inoperable tumors). All the patients were treated with an average of 300 mg of edelfosine/day (range of variation between 50 and 600 mg). […] The carrier medium/active ingredient mixture is drunk in different dose levels/portion, which differed from patient to patient, distributed over the day. Administration is accordingly oral; the treatment is entirely on an outpatient basis, unless the clinical picture makes admission to hospital unavoidable.
The number and duration of previous treatments before the start of therapy with a medicine are crucial for assessing the therapeutic efficacy=survival time and quality of survival; the survival time is in such cases always measured from the time at which the therapy with a medicine is started. The time which has elapsed from diagnosis until the start of treatment initially plays no direct part in this. However, it must be taken into account when the survival time of a last resort therapy (as edelfosine in this case) is compared with that of therapies which are usually started immediately after diagnosis (this is the case for chemotherapy and radiation studies).
For virtually all the patients, a tumor which continued to grow after all the therapies used led to the edelfosine therapy, i.e. the tumor was progressive (cf. Table 1, column “Tumor activity”). The specification of “clinical” progression means in this connection that the tumor was progressive on the basis of deteriorating clinical symptoms (for example increase in headaches, congestion in the head, dizziness, tendency to fall, neurological symptoms in general), but no objective study (for example CT) was available for comparison.
The pharmacodynamic effect, i.e. the effect of a medicine directly on the tumor, is normally measured 2 months after starting a therapy. This pharmacodynamic effect is defined differently depending on which class the substance belongs to (that is to say cytostatic, hormone product, immunomodulator etc.). […] The aim of therapy is accordingly a cessation of tumor growth (no change).
The survival time is measured from the start of therapy with a medicine. The state of the art survival time data reported in the literature for the treatment of brain tumors are usually based on either adjuvant treatment of patients, that is to say directly after surgical removal of a tumor, or else on treatment immediately after making the diagnosis.

[2] = ADR caused by edelfosine, number of 150 courses
[3] = ADR caused by edelfosine, number of 159 courses
[4] = ADR not caused by edelfosine, number of 149 courses
[5] = ADR not caused by edelfosine, number of 150 courses
[6] = ADR not caused by edelfosine, number of 159 courses
[7] = ADR possibly caused by edelfosine, number of 150 courses
[8] = ADR possibly caused by edelfosine, number of 159 courses
[9] = no symptom reported, number of 149 courses
[10] = no symptom reported, number of 150 courses
[11] = patients with Karnofsky index <70% (N=16)

## CCCCCCCCCCCCCCCCCCOC[C@H](COP(=O)([O-])OCC[N+](C)(C)C)OC (racemic) [edelfosine, 1-octadecyl-2-methyl-sn-glycero-3-phosphocholine]
Human leukemic cells
  apoptosis: reinduction of apoptosis
[1]; [2]
  Appetite, Grade 1 yes: 4
  Appetite, Grade 2 yes: 1
  Appetite, Grade 3 yes: 2
  Constipation, Grade 1 yes: 3
  Diarrhea, Grade 1 yes: 5
  Diarrhea, Grade 2 yes: 1
[1]; [3]
  Nausea/vomiting, Grade 1 yes: 12
  Nausea/vomiting, Grade 2 yes: 2
[1]; ADR not caused by edelfosine, number of 135 courses
  CNS toxicity, Grade 1 no: 1
[1]; ADR not caused by edelfosine, number of 148 courses
  Skin changes, Grade 4 no: 3
[1]; [4]
  Alopecia, Grade 1 no: 3
  Alopecia, Grade 2 no: 1
  Alopecia, Grade 3 no: 3
  Alopecia, Grade 4 no: 16
  Pain, Grade 1 no: 7
  Pain, Grade 2 no: 5
  Pain, Grade 3 no: 3
  Periph. neurop., Grade 1 no: 18
[1]; [5]
  Appetite, Grade 1 no: 4
  Appetite, Grade 2 no: 1
  Appetite, Grade 3 no: 4
  Appetite, Grade 4 no: 1
  Arrhythmia, Grade 1 no: 5
  Constipation, Grade 1 no: 1
  Diarrhea, Grade 2 no: 1
  Dyspnea, Grade 1 no: 4
  Dyspnea, Grade 2 no: 3
  Dyspnea, Grade 3 no: 1
  Dyspnea, Grade 4 no: 1
  Fever, Grade 1 no: 1
  Fever, Grade 2 no: 7
  Hemorrhages, Grade 1 no: 2
  Infection, Grade 1 no: 3
  Infection, Grade 2 no: 1
[1]; [6]
  Nausea/vomiting, Grade 1 no: 1
  Nausea/vomiting, Grade 2 no: 8
  Nausea/vomiting, Grade 3 no: 2
[1]; ADR possibly caused by edelfosine, number of 135 courses
  CNS toxicity, Grade 1 ?: 1
[1]; ADR possibly caused by edelfosine, number of 149 courses
  Alopecia, Grade 1 ?: 1
[1]; [7]
  Appetite, Grade 1 ?: 5
  Appetite, Grade 2 ?: 2
  Appetite, Grade 3 ?: 2
  Constipation, Grade 1 ?: 3
  Diarrhea, Grade 1 ?: 1
[1]; [8]
  Nausea/vomiting, Grade 1 ?: 5
  Nausea/vomiting, Grade 2 ?: 6
[1]; after several years of uninterrupted therapy
  cumulative toxicity: no cumulative toxicity
[1]; edelfosine therapy
  reversibility of observed ADR symptoms: reversible within a very short time (hours)
[1]; no symptom reported, number of 135 courses
  CNS toxicity, Grade 0: 133
[1]; no symptom reported, number of 148 courses
  Skin changes, Grade 0: 145
[1]; [9]
  Alopecia, Grade 0: 125
  Hematuria, Grade 0: 149
  Pain, Grade 0: 133
  Periph. neurop., Grade 0: 131
  Stomatitis, Grade 0: 149
[1]; [10]
  Appetite, Grade 0: 123
  Arrhythmia, Grade 0: 145
  Constipation, Grade 0: 143
  Diarrhea, Grade 0: 142
  Dyspnea, Grade 0: 141
  Fever, Grade 0: 142
  Heart failure, Grade 0: 150
  Hemorrhages, Grade 0: 148
  Infection, Grade 0: 146
[1]; no symptom reported, number of 151 courses
  Allergy, Grade 0: 151
[1]; no symptom reported, number of 159 courses
  Nausea/vomiting, Grade 0: 121
[1]; patients with nausea/vomiting (gastric pressure) during edelfosine therapy
  esophagoscopy, gastroscopy findings: no pathological findings at all
[1]; therapy of about 6 years, total dose of about 640 g
  adverse drug reactions of Pat. No. 542: negligible adverse drug reactions; also recorded: no ADRs at all
Healthy cells
  fate in healthy cells after uptake: degraded in healthy cells
Brain tumors; Anaplastic oligodendroglioma
  Result of therapy: No further progression
Brain tumors; Astrocytoma II
  Result of therapy: No further progression
  Result of therapy (clin.): No further progression
Brain tumors; Astrocytoma II/III
  Result of therapy: No further progression
  Survival time: 412 days
Brain tumors; Ependymoblastoma
  Result of therapy: Progression
  Survival time: 196 days
Brain tumors; Glioblastoma (Ø histol.)
  Result of therapy: Progression
  Result of therapy (clin.): No further progression
Brain tumors; Glioblastoma IV
  Result of therapy: Progression
  Survival time: 143 days and 266 days
  Result of therapy (clin.): No further progression
Brain tumors; Glioblastoma IV + Gliosarcoma
  Result of therapy: No further progression
  Survival time: 203 days
Brain tumors; Glioblastoma multiforme
  Result of therapy (clin.): No further progression
Brain tumors; Glioblastoma, many years after completion of therapy
  survival of Pat. No. 247: survived until the 8th year
Brain tumors; Gliosarcoma
  Result of therapy: No further progression
  Survival time: 110 days
Brain tumors; Oligoastrocytoma II
  Survival time: 270 days
  Result of therapy (clin.): No further progression
Brain tumors; Oligoastrocytoma IV
  Result of therapy: No further progression
  Survival time: 1602 days
Brain tumors; Oligodendroglioma III
  Result of therapy: No further progression
  Survival time: 573 days
Brain tumors; Oligodendroglioma III/IV
  Result of therapy: No further progression
  Survival time: 2141 days
Brain tumors; Oligodendroglioma IV
  Result of therapy: No further progression
  Survival time: 572 days
Brain tumors; after 2 months
  patients with clinical stabilization/improvement although tumor progressive according to imaging: 2%
  treated patients with tumor still progressive: about 24%
Brain tumors; after 2 months of therapy, no objective study
  treated patients with stabilization on the basis of clinical symptoms (cNC=clinical no change): approx. 14%
Brain tumors; imaging study after 2 months of therapy
  treated patients with cessation of tumor growth (NC=no change): about 56%
Brain tumors; patients with Karnofsky index <70%
  maximum gain in survival time: > 20 months
Brain tumors; [11]
  average survival time: about 260 days
  range of variation of survival time: 90 to 619 days
